Assay results: patent US10662159B2, “ABHD6 and dual ABHD6/MGL inhibitors and their uses” (MAKScientific, LLC, priority 2017, dated 2020)
pIC50: −log10 of the molar value.

Experiments:
Format in all cases: biochemical
hMGL = hMGL (Homo sapiens (Human), UniProt Q99685); assay: Fluorescent assay for hMGL (AHMMCE substrate hydrolysis); conditions: E. coli lysate containing hMGL, read-out: hMGL Inhibition IC50
Method: (§1) Certain compounds were tested for their ABHD6 and dual ABHD6/MGL inhibitory activity, which is expressed as % of inhibition or IC50 values in Table 1. The percentage of inhibition describes the percentage by which the inhibitor reduces the velocity/rate of 2-AG hydrolysis by ABHD6, and MGL or AEA hydrolysis by FAAH. […] The lower the IC50 values, the higher its inhibitory activity. A detailed description of the methods used to test inhibitory activity of compounds is given below.
Preparation of Human MAGL (hMAGL)
Fluorescent Assay Protocol for hMGL
This medium throughput assay involved a 96-well plate format in which hMGL activity was monitored by the hydrolysis of the substrate […] (AHMMCE) to form the fluorescent product, coumarin. […] Upon the addition of AHMMCE, the reaction was incubated at 25° C. for 120 min; fluorescence readings were taken every 15 min at 360 nm/460 nm (λexcitation/λemission) using a Synergy HT Plate Reader (Bio-Tek, Winooski, Vt.). […] External standards were used to convert relative fluorescence units to the amount of 4-methylcoumarin formed. All MGL assays were performed in triplicate for each inhibitor concentration, and IC50 values were calculated using Prizm software (GraphPad Software, Inc., San Diego, Calif.).

Rat ΔTM FAAH = Rat ΔTM FAAH (Rattus norvegicus (Rat), UniProt P97612); assay: Fluorescent assay for rat ΔTM FAAH (AAMCA substrate); conditions: ΔTM rFAAH, AAMCA 20 μM; read-out: rFAAH Inhibition IC50
Sequence of Rat ΔTM FAAH (P97612 30-579): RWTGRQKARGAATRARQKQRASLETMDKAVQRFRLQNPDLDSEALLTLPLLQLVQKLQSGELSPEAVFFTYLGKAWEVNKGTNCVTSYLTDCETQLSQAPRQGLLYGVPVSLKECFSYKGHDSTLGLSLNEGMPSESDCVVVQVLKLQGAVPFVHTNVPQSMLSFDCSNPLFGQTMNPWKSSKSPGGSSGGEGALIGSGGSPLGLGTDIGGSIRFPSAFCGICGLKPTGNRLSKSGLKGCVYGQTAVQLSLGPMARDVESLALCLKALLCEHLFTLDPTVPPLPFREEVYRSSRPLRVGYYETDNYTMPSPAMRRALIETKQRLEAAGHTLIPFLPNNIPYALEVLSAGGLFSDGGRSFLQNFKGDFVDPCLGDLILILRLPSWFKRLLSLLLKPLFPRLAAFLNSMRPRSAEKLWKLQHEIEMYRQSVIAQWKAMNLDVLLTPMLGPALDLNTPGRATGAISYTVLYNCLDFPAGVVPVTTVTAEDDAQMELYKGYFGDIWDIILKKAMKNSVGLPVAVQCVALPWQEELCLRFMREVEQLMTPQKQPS
Method: Certain compounds were tested for their ABHD6 and dual ABHD6/MGL inhibitory activity, which is expressed as % of inhibition or IC50 values in Table 1. The percentage of inhibition describes the percentage by which the inhibitor reduces the velocity/rate of 2-AG hydrolysis by ABHD6, and MGL or AEA hydrolysis by FAAH. The IC50 is the concentration of the inhibitor, which results in 50% inhibition of the velocity/rate of 2-AG hydrolysis by ABHD6 or MGL. The IC50 is the concentration of the inhibitor, which results in 50% inhibition of the velocity/rate of AEA hydrolysis by FAAH. The lower the IC50 values, the higher its inhibitory activity. A detailed description of the methods used to test inhibitory activity of compounds is given below.
Example 79. Preparation of Transmembrane Domain-Deleted Rat FAAH (ΔTM rFAAH)
Rat ΔTM FAAH was expressed in E. coli cells and purified using the procedure disclosed by Patricelli et al. Biochemistry (1998) 37: 15177-15187.
Example 81. Fluorescent Assay Protocol for Rat ΔTM FAAH
The fluorescence reading at the 3 hour time point (linear enzyme kinetics) was used to calculate percent inhibition based on control assays without inhibitor present. All FAAH assays were performed in triplicate for each inhibitor concentration, and IC50 values determined using Prizm software (GraphPad Software, Inc.).

hABHD6 = hABHD6 (Homo sapiens (Human), UniProt Q9BV23); assay: Fluorescent assay for hABHD6 (AHMMCE substrate hydrolysis); conditions: membrane fraction containing full-length hABHD6, 20 μM AHMMCE; read-out: ABHD6 Inhibition IC50
Sequence of hABHD6 (Q9BV23 whole entry): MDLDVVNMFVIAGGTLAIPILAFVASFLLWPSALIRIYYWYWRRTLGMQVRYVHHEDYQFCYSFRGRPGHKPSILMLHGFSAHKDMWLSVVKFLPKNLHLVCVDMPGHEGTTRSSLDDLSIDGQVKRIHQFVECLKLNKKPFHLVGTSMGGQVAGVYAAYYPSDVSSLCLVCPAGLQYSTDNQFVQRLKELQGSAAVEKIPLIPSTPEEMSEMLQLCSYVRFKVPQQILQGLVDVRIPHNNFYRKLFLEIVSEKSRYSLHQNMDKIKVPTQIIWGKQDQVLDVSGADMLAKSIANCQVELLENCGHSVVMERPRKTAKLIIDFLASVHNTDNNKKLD
Method: as §1
Fluorescent Assays Protocol for hABHD6
Initial Fluorescent Inhibition Assay (3-Point)—
In each well of a 96-well plate 8 μL of membrane fraction containing full-length hABHD6 (1 μg total protein) was mixed with 168 μL of assay buffer (50 mM Tris-HCl, pH 7.6), and 20 μL of diluted compound (diluted in a dilution buffer consisting of 50% DMSO/50% assay buffer v/v). Each plate was incubated at RT for 15 minutes before adding 4 μL of 1 mM AHMMCE substrate (final concentration of 20 μM AHMMCE and final volume of 200 μL). The reaction was allowed to proceed for 1 hr at RT before the fluorescence was read at λex 360 nm and λem 460 nm and the inhibition calculated. Each experiment can test 8 compounds at three concentrations (usually 10 μM, 1 μM, and 100 nM).
IC50 Determination Assay (8-Point)—
A more detailed assay with an extended range tests compounds over 8 concentrations depending on the pre-determined approximate IC50 value from the initial screen. […] The assay was conducted in 96 well plate with each well containing the same reaction mixture detailed above in the 3-point screen. The relative fluorescence is quantified into coumarin produced by using a standard curve of HMMC in triplicate on each plate. Results are normalized to the negative control wells and the IC50 is determined using a non-linear regression curve fit in Prism, version 5 (GraphPad, San Diego, Calif.).

Sequence of hMGL (Q99685 whole entry): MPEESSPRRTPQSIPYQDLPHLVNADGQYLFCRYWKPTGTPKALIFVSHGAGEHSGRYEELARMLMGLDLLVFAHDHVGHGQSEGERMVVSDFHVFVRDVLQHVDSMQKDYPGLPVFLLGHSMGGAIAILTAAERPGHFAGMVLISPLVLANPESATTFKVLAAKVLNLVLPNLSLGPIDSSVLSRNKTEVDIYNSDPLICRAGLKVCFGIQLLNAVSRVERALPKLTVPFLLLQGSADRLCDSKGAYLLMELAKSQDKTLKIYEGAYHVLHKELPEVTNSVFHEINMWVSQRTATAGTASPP

SMILES	pIC50 (hMGL)	pIC50 (Rat ΔTM FAAH)	pIC50 (hABHD6)
COc1cccc2c1CCN(C(=O)OC(C(F)(F)F)C(F)(F)F)C2 [Example 22, 1,1,1,3,3,3-Hexafluoropropan-2-yl 5-methoxy-3,4-dihydroisoquinoline-2(1H)-carboxylate]	< 6.00	< 6.00	7.00 to 8.00
COc1ccc2c(c1)CCN(C(=O)OC(C(F)(F)F)C(F)(F)F)C2 [Example 23, 1,1,1,3,3,3-Hexafluoropropan-2-yl 6-methoxy-3,4-dihydroisoquinoline-2(1H)-carboxylate]	< 6.00	< 6.00	7.00 to 8.00
O=C(OC(C(F)(F)F)C(F)(F)F)N1Cc2ccc(-c3ccccc3)cc2C1 [Example 25, 1,1,1,3,3,3-Hexafluoropropan-2-yl 5-phenylisoindoline-2-carboxylate]	< 6.00	< 6.00	7.00 to 8.00
O=C(OC(C(F)(F)F)C(F)(F)F)N1CCc2c(cccc2-c2ccccc2)C1 [Example 28, 1,1,1,3,3,3-Hexafluoropropan-2-yl 5-phenyl-3,4-dihydroisoquinoline-2(1H)-carboxylate]	< 6.00	< 6.00	6.00 to 7.00
CN1CCN(c2ccc3c(c2)CN(C(=O)OC(C(F)(F)F)C(F)(F)F)C3)CC1 [Example 29, 1,1,1,3,3,3-Hexafluoropropan-2-yl 5-(4-methylpiperazin-1-yl)isoindoline-2-carboxylate]	< 6.00	< 6.00	6.00 to 7.00
O=C(OC(C(F)(F)F)C(F)(F)F)N1Cc2ccc(N3CCS(=O)(=O)CC3)cc2C1 [Example 31, 1,1,1,3,3,3-Hexafluoropropan-2-yl 5-(1,1-dioxidothiomorpholino)isoindoline-2-carboxylate]	–	< 6.00	7.00 to 8.00
O=C(OC(C(F)(F)F)C(F)(F)F)N1Cc2ccc(N3CCOCC3)cc2C1 [Example 32, 1,1,1,3,3,3-Hexafluoropropan-2-yl 5-morpholinoisoindoline-2-carboxylate]	< 6.00	< 6.00	7.00 to 8.00
COc1ccc2c(c1)CN(C(=O)ON1C(=O)C3C(C1=O)C3(C)C)C2 (centres unmarked) [Example 38, 6,6-Dimethyl-2,4-dioxo-3-azabicyclo[3.1.0]hexan-3-yl 5-methoxyisoindoline-2-carboxylate]	< 6.00	< 6.00	< 6.00
CC1(C)C2C(=O)N(OC(=O)N3Cc4ccc(N5CCOCC5)cc4C3)C(=O)C21 (centres unmarked) [Example 39, 6,6-Dimethyl-2,4-dioxo-3-azabicyclo[3.1.0]hexan-3-yl 5-morpholinoisoindoline-2-carboxylate]	< 6.00	< 6.00	7.00 to 8.00
O=C(OC(C(F)(F)F)C(F)(F)F)N1CCc2c(cccc2OCCCF)C1 [Example 41, 1,1,1,3,3,3-Hexafluoropropan-2-yl 5-(3-fluoropropoxy)-3,4-dihydroisoquinoline-2(1H)-carboxylate]	< 6.00	< 6.00	7.00 to 8.00
O=C(OC(C(F)(F)F)C(F)(F)F)N1Cc2ccc(OCC3CC3)cc2C1 [Example 43, 1,1,1,3,3,3-Hexafluoropropan-2-yl 5-(cyclopropylmethoxy)isoindoline-2-carboxylate]	< 6.00	< 6.00	7.00 to 8.00
O=C(OC(C(F)(F)F)C(F)(F)F)N1Cc2ccc(OCCN3CCOCC3)cc2C1 [Example 44, 1,1,1,3,3,3-Hexafluoropropan-2-yl 5-(2-morpholinoethoxy)isoindoline-2-carboxylate]	< 6.00	< 6.00	6.00 to 7.00
CN(C)CCOc1ccc2c(c1)CN(C(=O)OC(C(F)(F)F)C(F)(F)F)C2 [Example 46, 1,1,1,3,3,3-Hexafluoropropan-2-yl 5-(2-(dimethylamino)ethoxy)isoindoline-2-carboxylate]	7.00 to 8.00	< 6.00	7.00 to 8.00
O=C(OC(C(F)(F)F)C(F)(F)F)N1Cc2ccc(OCCN3CCCC3)cc2C1 [Example 49, 1,1,1,3,3,3-Hexafluoropropan-2-yl 5-(2-(pyrrolidin-1-yl)ethoxy)isoindoline-2-carboxylate]	7.00 to 8.00	< 6.00	7.00 to 8.00
O=C(COc1ccc2c(c1)CN(C(=O)OC(C(F)(F)F)C(F)(F)F)C2)N1CCOCC1 [Example 50, 1,1,1,3,3,3-Hexafluoropropan-2-yl 5-(2-morpholino-2-oxoethoxy)isoindoline-2-carboxylate]	7.00 to 8.00	< 6.00	7.00 to 8.00
O=C(OC(C(F)(F)F)C(F)(F)F)N1CC2(CCC(Oc3cccc(F)c3)C2)C1 (centres unmarked) [Example 59, 1,1,1,3,3,3-Hexafluoropropan-2-yl 6-(3-fluorophenoxy)-2-azaspiro[3.4]octane-2-carboxylate]	7.00 to 8.00	7.00 to 8.00	7.00 to 8.00

Results, then the compound that gave them:

pIC50 (hMGL)	pIC50 (Rat ΔTM FAAH)	pIC50 (hABHD6)	SMILES
< 6.00	< 6.00	< 6.00	O=C(OC(CF)CF)N1CCc2c(Br)cccc2C1 [Example 5, 1,3-Difluoropropan-2-yl 5-bromo-3,4-dihydroisoquinoline-2(1H)-carboxylate]
< 6.00	< 6.00	7.00 to 8.00	O=C(OC(C(F)(F)F)C(F)(F)F)N1Cc2ccc(N3CCCC3)cc2C1 [Example 30, 1,1,1,3,3,3-Hexafluoropropan-2-yl 5-(pyrrolidin-1-yl)isoindoline-2-carboxylate]
< 6.00	< 6.00	7.00 to 8.00	CC1(C)C2C(=O)N(OC(=O)N3CCc4c(Br)cccc4C3)C(=O)C21 (centres unmarked) [Example 35, 6,6-Dimethyl-2,4-dioxo-3-azabicyclo[3.1.0]hexan-3-yl 5-bromo-3,4-dihydroisoquinoline-2(1H)-carboxylate]
< 6.00	< 6.00	6.00 to 7.00	O=C1C2CC2C(=O)N1ON1CCc2c(Br)cccc2C1 (centres unmarked) [Example 37, 3-((5-Bromo-3,4-dihydroisoquinolin-2(1H)-yl)oxy)-3-azabicyclo[3.1.0]hexane-2,4-dione]
< 6.00	< 6.00	7.00 to 8.00	O=C(O[C@H](CO)C(F)(F)F)N1CCc2c(Br)cccc2C1 [Example 40, (R)-1,1,1-trifluoro-3-hydroxypropan-2-yl 5-bromo-3,4-dihydroisoquinoline-2(1H)-carboxylate]
< 6.00	< 6.00	7.00 to 8.00	O=C(OC(C(F)(F)F)C(F)(F)F)N1Cc2ccc(OCCCF)cc2C1 [Example 42, 1,1,1,3,3,3-Hexafluoropropan-2-yl 5-(3-fluoropropoxy)isoindoline-2-carboxylate]
< 6.00	< 6.00	7.00 to 8.00	O=C(OC(C(F)(F)F)C(F)(F)F)N1Cc2ccc(NCCN3CCOCC3)cc2C1 [Example 47, 1,1,1,3,3,3-Hexafluoropropan-2-yl 5-((2-morpholinoethyl)amino)isoindoline-2-carboxylate]
7.00 to 8.00	< 6.00	7.00 to 8.00	O=C(OC(C(F)(F)F)C(F)(F)F)N1Cc2ccc(OCCN3CCCCC3)cc2C1 [Example 48, 1,1,1,3,3,3-Hexafluoropropan-2-yl 5-(2-(piperidin-1-yl)ethoxy)isoindoline-2-carboxylate]
